As a reminder, the pKi is −log10 of the Ki, conventionally taken in molar units. The pKd is the Kd on a negative log10 scale, so that one unit is a factor of ten. Broadly, the pIC50 is the IC50 on a negative log10 scale, so that one unit is a factor of ten.

This is an account of results in patent US5576436A, “Fluorescent ligands” (Pharmaceutical Discovery Corporation, priority 1994, dated 1996).

One test deals with Cannabinoid. Description: Radioligand binding, cannabinoid receptor. The note with it: Table I; read-out: Radiolig. Kd:Ki.
In the next test the test system is Glycine. Briefly: Fluorescent ligand binding, glycine receptor (strychnine-insensitive). The note with it: Table I.
Test [1] has as its target Peripheral Bzd. Briefly: Fluorescent ligand binding, peripheral benzodiazepine receptor. As to conditions: Table I. The procedure:
PERIPHERAL BENZODIAZEPINE RECEPTOR LIGAND (PDC 018.091)
(§1) Recommended Assay Conditions:
Incubation buffer: 50 Nm Tris-Citrate containing […] MgCL2 (pH 7.0 at 4° C.)
(§2) Spectra: 492 nm (ex) and 516 nm (em)
(§3) 1. Reconstitution: 10.0 ml of incubation buffer

The target of test [2] is Peripheral Bzd. Briefly: Radioligand binding, peripheral benzodiazepine receptor. As to conditions: Table I; read-out: Radiolig. Kd:Ki.
In a further test the test system is benzodiazepine receptors. The note with it: cited from earlier work.
Test [3] deals with NMDA. Description: Fluorescent ligand binding, NMDA receptor complex. The note with it: Table I. The procedure: NMDA RECEPTOR COMPLEX LIGAND (spectral shift compound) (PDC 014.041)
as §1
Incubation buffer: 5 mM Hepes/Tris (pH 7.8 at 25° C.)
Spectra: 335 nm (ex) and 515 nm (em)
as §3
3. Incubation Time: 2 hours at 25° C.
4. Measure fluorescence intensity: 335 nm (ex) and […]

In test [4] the target is NMDA. Briefly: Radioligand binding, NMDA. The note with it: Table I; read-out: Radiolig. Kd:Ki.
Another test has as its system Kappa 1. Description: Fluorescent ligand binding, kappa1 opioid receptor. As to conditions: result in words.
For the next test, the target named is kappa1 opioid receptor. Description: Radioligand ([^3 H]U69,593) binding, kappa1 opioid receptor. As to conditions: read-out: IC50 value versus radioligand binding.
Test [5] addresses Adenosine-A2a. Briefly: Fluorescent ligand binding, adenosine-A2a receptor. The note with it: Table I. How it is done: Recommended Assay Conditions for ADENOSINE-A2A RECEPTOR LIGAND (PDC 018.075)
Incubation buffer: 50 mM Tris-HCL containing 10mM MgCl2, (pH 7.4 at 25° C.)
as §2, §3
3. Incubation Time: 90 minutes at 25° C.

For test [6], the target named is Adenosine-A2a. Briefly: Radioligand binding, adenosine-A2a. The note with it: Table I; read-out: Radiolig. Kd:Ki.
Test [7] concerns the target Dopamine 1. Briefly: Fluorescent ligand binding, dopamine 1 (direct fluorescence measurement). As to conditions: Table I.
The target of test [8] is Dopamine 1. Description: Radioligand binding, dopamine 1. As to conditions: Table I; read-out: Radiolig. Kd:Ki.
Test [9] deals with Dopamine 2. Description: Fluorescent ligand binding, dopamine 2 (direct fluorescence measurement). As to conditions: Table I.
The target of test [10] is Dopamine 2. Description: Radioligand binding, dopamine 2. The note with it: Table I; read-out: Radiolig. Kd:Ki.
Test [11] has as its target Muscarinic-M1. Description: Fluorescent ligand binding, muscarinic-M1 receptor. As to conditions: Table I.
Test [12] deals with Muscarinic-M1. Briefly: Radioligand binding, muscarinic-M1. The note with it: Table I; read-out: Radiolig. Kd:Ki.
The mark [13] stands for this setting: density of binding of the ligand.
[14] abbreviates: centrifugation, read-out: Fluores. Kd.
Where [15] appears, read: centri., quench, read-out: Fluores. Kd.

pIC50, pKd, pKi: −log10 of the molar value. Read-outs that look alike come from different tables or passages of the source.

As for `CCCCC/C=C\C/C=C\C/C=C\C/C=C\CCCC(=O)NCCNc1ccc([N+](=O)[O-])c2nonc12` [PDC 014.063], on Cannabinoid, the pKi was 7.28.
The compound `O=C(NCCCCCCNc1ccc([N+](=O)[O-])c2nonc12)c1cc(O)c2c(Cl)cc(Cl)cc2n1` [PDC 002.083] had a Bmax in the test with Glycine (setting [13]) of 14.5 pmol/mg prot. Besides, the pKd on Glycine (read-out: Fluores. Kd, centri., quench) was 6.12.
`CCC(C)N(C)C(=O)c1cc2ccccc2c(-c2cc(NC(=O)c3ccc4c(c3)C(=O)OC43c4ccc(O)cc4Oc4cc(O)ccc43)ccc2F)n1` (centres unmarked) [PDC 018.091]: on Peripheral Bzd [1] (setting [14]), the pKd was 7.40. The same compound registered a Bmax with Peripheral Bzd [1] (setting [13]) of 2.3 pmol/mg prot. Moreover, at Peripheral Bzd [2], the negative logarithm of the Ki (pKi) was 8.70.
Take `Cc1nnc2n1-c1ccc(Cl)cc1C(c1ccccc1)=NC2` [Alprazolam, alprazolam]: the “specific to nonspecific (signal to noise) binding ratios” value in the test with benzodiazepine receptors (nonequilibrium and equilibrium binding conditions) is recorded as “high”. In the test with benzodiazepine receptors (rat brain membranes, saturable and specific), the “affinity for benzodiazepine receptors” value is listed as “low nanomolar affinity”. For the same compound, the “selectivity in vitro for benzodiazepine receptors” value in the test on benzodiazepine receptors (rat brain) was “selective and specific ligand”.
Consider `CCCCC/C=C\C/C=C\C/C=C\C/C=C\CCCC(=O)NCCNS(=O)(=O)c1cccc2c(N(C)C)cccc12` [PDC 014.064], for which the pKi on Cannabinoid was 7.28.
As to `CN(C)c1cccc2c(S(=O)(=O)NCCCNC(Cc3ccccc3)c3ccccc3)cccc12` (centres unmarked) [PDC 014.041], the negative logarithm of the Kd (pKd) at NMDA [3] (centri., spectral shift, read-out: Fluores. Kd) is 6.00. Moreover, the Bmax in the test on NMDA [3] (setting [13]) was found to be 1.9 pmol/mg prot. Besides, at NMDA [4], the negative logarithm of the Ki (pKi) is 7.35.
On to `CN(C(=O)Cc1cc(Cl)c(Cl)cc1NC(=O)CCCNC(=O)c1ccc2c(c1)C(=O)OC21c2ccc(O)cc2Oc2cc(O)ccc21)[C@@H]1CCCC[C@H]1N1CCCC1` [1R,2R-trans-4,5-dichloro-2-(4-fluorescein-5-carboxamido)-n-butaniado)-(N-methyl)-2-(1-pyrrolidnyl)-cyclohexyl)benzeneacetamide], for which, in the test with Kappa 1, the “Measurement using the fluorescence assay” value is recorded as “confirmed the radioligand results”. Further, the pIC50 at kappa1 opioid receptor (1R,2R enantiomer) was 5.49; on kappa1 opioid receptor (bound in parentheses), less than 6.00.
In the case of `CCNC(=O)[C@H]1O[C@@H](n2cnc3c(N)nc(NCCc4ccc(CCC(=O)NCCNC(=S)Nc5ccc6c(c5)C(=O)OC65c6ccc(O)cc6Oc6cc(O)ccc65)cc4)nc32)[C@H](O)[C@@H]1O` [PDC 018.075], at Adenosine-A2a [5] (setting [14]), the negative-log Kd (pKd) is 7.24. The Bmax with Adenosine-A2a [5] (setting [13]) is recorded as 2.3 pmol/mg prot. Moreover, the pKi on Adenosine-A2a [6] was 7.82.
In the case of `NCCCC(=O)O` [GABA], in the test on benzodiazepine receptors (rat brain membranes), the “effect on [^3 H]alprazolam binding” value is recorded as “enhanced”.
In the case of `O=[N+]([O-])c1ccc(NCCN2CCN(CCCN3c4ccccc4Sc4ccc(C(F)(F)F)cc43)CC2)c2nonc12` [PDC 014.043], on Dopamine 1 [7] (setting [15]), the pKd was 6.72. This compound also gave a Bmax in the test on Dopamine 1 [7] (setting [13]) of 69 pmol/mg prot. Moreover, on Dopamine 1 [8], the pKi was 7.96.
Turning to `CCN(CC)CCNC(=O)c1cc(Cl)c(NC(=O)CCCCCNc2ccc([N+](=O)[O-])c3nonc23)cc1OC` [PDC 014.036], at Dopamine 2 [9] (setting [15]), the pKd was 6.30. Also, the Bmax in the test on Dopamine 2 [9] (setting [13]) is reported as 0.13 pmol/mg prot. In addition, the pKi at Dopamine 2 [10] is 7.05.
As to `O=[N+]([O-])c1ccc(NCCN2CCOCC2)c2nonc12` [PDC 018.039], at Muscarinic-M1 [11] (setting [15]), the negative-log Kd (pKd) is 6.01. The Bmax in the test with Muscarinic-M1 [11] (setting [13]) is given as 0.20 pmol/mg prot. Besides, the pKi on Muscarinic-M1 [12] was 5.77.
